In US20220280661A1, “GLUCOCORTICOID RECEPTOR RADIOLIGANDS AND METHODS FOR THEIR PREPARATION AND USE” (The Regents of the University of California, priority 2019, published 2022):

Molecular target: T1, GR (Mus musculus, UniProt P06537)
T1 construct: from tissue; host or cells: tissues of C57BL6/J mice (intact or adrenalectomized), in vivo
T1 sequence (P06537 1-792): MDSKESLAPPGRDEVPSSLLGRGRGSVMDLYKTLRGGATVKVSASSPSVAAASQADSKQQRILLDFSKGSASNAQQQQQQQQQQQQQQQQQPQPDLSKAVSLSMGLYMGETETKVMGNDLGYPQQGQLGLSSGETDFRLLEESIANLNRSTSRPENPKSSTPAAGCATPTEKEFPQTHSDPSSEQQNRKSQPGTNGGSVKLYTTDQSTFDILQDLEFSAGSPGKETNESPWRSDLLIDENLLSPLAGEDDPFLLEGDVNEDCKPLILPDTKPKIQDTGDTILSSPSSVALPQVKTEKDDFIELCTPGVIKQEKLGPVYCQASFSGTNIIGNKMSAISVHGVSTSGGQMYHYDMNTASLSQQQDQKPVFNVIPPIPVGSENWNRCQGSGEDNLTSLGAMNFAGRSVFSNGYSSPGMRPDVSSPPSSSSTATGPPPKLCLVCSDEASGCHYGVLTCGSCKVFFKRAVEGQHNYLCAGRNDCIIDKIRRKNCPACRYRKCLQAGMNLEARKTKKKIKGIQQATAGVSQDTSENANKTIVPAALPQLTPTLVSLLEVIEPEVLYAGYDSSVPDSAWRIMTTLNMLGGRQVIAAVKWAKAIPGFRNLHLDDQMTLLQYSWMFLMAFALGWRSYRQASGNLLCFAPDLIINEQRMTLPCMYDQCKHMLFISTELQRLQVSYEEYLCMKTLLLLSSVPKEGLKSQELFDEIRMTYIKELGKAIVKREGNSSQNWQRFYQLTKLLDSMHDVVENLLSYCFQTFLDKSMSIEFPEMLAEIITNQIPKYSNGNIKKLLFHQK
Experiment: Radiotracer biodistribution in intact or adrenalectomized mice
Format: in vivo
Details: 20 min post injection
Description: All animal experiments were conducted under the approval from Institutional Animal Care and Use Committee (IACUC) at UCSF. Male nu nu or C57BL6/J mice (4-6 weeks) purchased from Charles River. All the mice were well-housed in the USCF with free access to food and water. […] The mice were treated once daily for three days. At day 3, the mice received the radiotracer after the final gavage. Adrenalectomized mice were purchased from Charles River, and provided drinking water supplemented with NaCl (aq) per instructions.
For a broader survey of radiotracer biodistribution post mortem, mice were euthanized after radiotracer injection with CO2(g) asphyxiation and dissected at dedicated time points post injection. The blood and tissues were removed, washed, dried and weighed. The activity of each tissue was measured with a gamma counter. All data was decay corrected. PRISM software was used to express a percentage (% ID/g) of the injected dose per gram of tissue. […] Table 2 provides a tabular representation of the biodistribution data collected 30, 60, 90 minutes after injection of [18F]-YJH08 in C57B16/J mice. The data are represented as mean standard deviation of the % ID/g.
To understand if corticosteroid depletion elevated radiotracer uptake in tissues, the biodistribution of [18F]-YJH08 was compared in intact and adrenalectomized (adx) mice. The radiotracer uptake was uniformly higher in the tissues of adx mice compared to intact mice (FIG. 4C and Table 4). Overall, the extent of GR specific binding in tissues observed with [18F]-YJH08 is remarkable considering the previously reported biodistribution data for radiotracers targeting GR, including non-steroidal agonists. See, Wuest, et al. Bioorganic & medicinal chemistry letters 2007, 17 (14), 4035-9.
The P value indicates the result of an unpaired, two-tailed Student's t test between the two arms (n=4/group).
Animal Studies. All animal experiments were performed under the approval of the Institutional Animal Care and Use Committee (IACUC) at UCSF. C57BL6/J mice (4-6 weeks) were purchased from Charles River. All the mice were housed in a dedicated vivarium with free access to food and water. […] Adrenalectomized mice were purchased from Charles River and provided drinking water supplemented with NaCl (aq) per instructions until the time of the tracer biodistribution study.
Biodistribution Studies. Mice were euthanized after radiotracer (7.4-18.5 MBq in 100-150 μL) injection with CO2 (g) asphyxiation and dissected at dedicated time points post injection. The blood and tissues were collected, washed, dried, and weighed. The activity of each tissue was measured with a gamma counter. All data was decay corrected. PRISM software was used to express a percentage (% ID/g) of the injected dose per gram of tissue.
The data were collected in intact male C57B16/J mice at 20 min post injection.
Significant reductions in (±)-^11C-YJH08 tissue uptake were observed by treating mice with Dex-CD at 10 mg/kg via intraperitoneal injection 1 hour before the radiotracer injection (FIG. 7A). […] Specific binding in vivo was further studied by investigating relative tissue uptake in intact versus adrenalectomized mice (adrenalectomy depletes serum corticosteroids and elevates GR expression in tissues). […] Table 8 summarizes the biodistribution data collected 20 minutes after injection of (±)-^11C-YJH08 in intact or adrenalectomized (ADREX) mice. The P value indicates the result of an unpaired, two-tailed Student's t test between the two arms (n=4/group).

[1] = intact C57B16/J mice, listed as (±)-^18F-YJH08

SMILES | radiotracer uptake, Blood (adrenalectomized mice) | radiotracer uptake, Bone (adrenalectomized mice) | radiotracer uptake, Brain (adrenalectomized mice) | radiotracer uptake, Heart (adrenalectomized mice) | radiotracer uptake, Kidney (adrenalectomized mice) | radiotracer uptake, Liver (adrenalectomized mice) | radiotracer uptake, Muscle (adrenalectomized mice) | radiotracer uptake, Spleen (adrenalectomized mice) | radiotracer uptake, Supraspinal BAT (adrenalectomized mice) | radiotracer uptake, Adrenal Gland (intact C57B16/J mice) | radiotracer uptake, Blood (intact C57B16/J mice) | radiotracer uptake, Bone (intact C57B16/J mice) | radiotracer uptake, Brain (intact C57B16/J mice) | radiotracer uptake, Heart (intact C57B16/J mice) | radiotracer uptake, Kidney (intact C57B16/J mice) | radiotracer uptake, Liver (intact C57B16/J mice) | radiotracer uptake, Muscle (intact C57B16/J mice) | radiotracer uptake, Spleen (intact C57B16/J mice) | radiotracer uptake, Supraspinal BAT (brown fat depot) (intact C57B16/J mice) | also measured
CC1=CC(C)(C)Nc2ccc3c(c21)C(Cc1ccc(F)cc1)Oc1cccc(O[11CH3])c1-3 (racemic) [(±)-^11C-YJH08] | 2.79 ± 0.54 % ID/g | 2.03 ± 0.4 % ID/g | 2.28 ± 0.46 % ID/g | 5.63 ± 0.94 % ID/g | 6.88 ± 1.52 % ID/g | 15.21 ± 3.39 % ID/g | 2.32 ± 0.5 % ID/g | 2.88 ± 0.68 % ID/g | 12.01 ± 3.54 % ID/g | 13.88 ± 7.15 % ID/g | 2.25 ± 0.21 % ID/g | 1.19 ± 0.13 % ID/g | 1.81 ± 0.17 % ID/g | 4.47 ± 0.43 % ID/g | 5.82 ± 0.28 % ID/g | 12.19 ± 1.22 % ID/g | 1.53 ± 0.13 % ID/g | 2.22 ± 0.33 % ID/g | 9.8 ± 2.83 % ID/g | –
COc1cccc2c1-c1ccc3c(c1C(Cc1ccc([18F])cc1)O2)C(C)=CC(C)(C)N3 (racemic) [[18F]-YJH08, [^18F]-5-(4-fluorobenzyl)-10-methoxy-2,2,4-trimethyl-2,5-dihydro-1H-chromeno[3,4-f]quinoline] | 2.67 ± 0.1 % ID/g | 1.45 ± 0.2 % ID/g | 2.42 ± 0.1 % ID/g | 4.75 ± 1.0 % ID/g | 6.91 ± 0.3 % ID/g | 13.28 ± 1.43 % ID/g | 2.03 ± 0.2 % ID/g | 3.25 ± 0.05 % ID/g | 15.56 ± 3.8 % ID/g | 10.82 ± 5.9 % ID/g | 2.01 ± 0.4 % ID/g | 1.39 ± 02 % ID/g | 1.96 ± 0.09 % ID/g | 3.92 ± 0.5 % ID/g | 5.79 ± 1.0 % ID/g | 10.68 ± 1.1 % ID/g | 1.53 ± 0.1 % ID/g | 2.67 ± −0.5 % ID/g | 9.01 ± 2.0 % ID/g | radiotracer uptake, Large intestine (adrenalectomized mice): 1.34 ± 0.7 % ID/g; radiotracer uptake, Lung (adrenalectomized mice): 4.35 ± 1.1 % ID/g; radiotracer uptake, Pancreas (adrenalectomized mice): 5.25 ± 0.4 % ID/g; radiotracer uptake, Small intestine (adrenalectomized mice): 27.83 ± 2.89 % ID/g; radiotracer uptake, Stomach (adrenalectomized mice): 3.23 ± 3.57 % ID/g; radiotracer uptake, Lung (intact C57B16/J mice): 3.89 ± 0.7 % ID/g; radiotracer uptake, Pancreas (intact C57B16/J mice): 4.40 ± 0.2 % ID/g; radiotracer uptake, Small intestine (intact C57B16/J mice): 21.22 ± 4.1 % ID/g; radiotracer uptake, Stomach (intact C57B16/J mice): 3.38 ± 2.8 % ID/g; radiotracer uptake, Adrenal Gland [1]: 12.19 ± 6.46 % ID/g; radiotracer uptake, Blood [1]: 2.22 ± 0.14 % ID/g; radiotracer uptake, Bone [1]: 1.3 ± 0.23 % ID/g; radiotracer uptake, Brain [1]: 1.93 ± 0.07 % ID/g; radiotracer uptake, Heart [1]: 4.15 ± 0.31 % ID/g; radiotracer uptake, Kidney [1]: 5.79 ± 1.07 % ID/g; radiotracer uptake, Liver [1]: 11.08 ± 0.92 % ID/g; radiotracer uptake, Muscle [1]: 1.53 ± 0.12 % ID/g; radiotracer uptake, Spleen [1]: 2.46 ± 0.53 % ID/g; radiotracer uptake, Supraspinal BAT (brown fat depot) [1]: 9.01 ± 2.07 % ID/g
